Assays:
healthy subjects [1] = assay: Double-blind, placebo-controlled dose titration clinical study; heart rate by continuous telemetry and Holter; assay type: in vivo, human
Method: A single-center, double-blind, placebo-controlled, dose titration, once-daily, multiple-oral-dose clinical study in healthy subjects was conducted to evaluate the effect of a dosage regimen of FTY720 according to the present invention. A total of 36 subjects were randomly assigned to one of the three groups. Each subject participated in a screening period of maximal 21 days, a baseline period (Day −1), a 9-day dose-administration period, and clinical study completion assessments on Day 10. Subjects were assigned to one of the three groups (dose titration regimen group, placebo Control group, or active control group) and received the once daily dose in a double-blinded manner (Table 1). In the dose titration group, increasing once daily doses of Compound A (FTY720), starting at 0.125 mg o.d. and ending at the maximal therapeutic dose of 1.25 mg o.d. were administered on days 1 to 9 of the study according to the schedule shown in Table 1 below. The placebo control group received placebo through out the duration of the study and the active control group received a once daily dose of 1.25 mg of FTY720 on days 1 to 9. [table] On Day −1 (baseline), subjects will undergo baseline assessments including 24 hour holter monitoring and telemetry assessments. Pharmacodynamic and safety assessments are performed up to 24 hours post last dose. Heart rate is monitored via telemetry on Day −1 through Day 10, 24 hour after the last dosing. Heart rhythm is assessed via 24 hr continuous holter monitoring on Day −1, Day 1, and Day 9. For each dosing for each subject, the drug is administered as closely as practically possible to the time administered on Day −1. Safety assessments includes physical examinations, vital signs and body measurements, 12-lead ECG evaluations, standard clinical laboratory evaluations hematology, blood chemistry, urinalysis, adverse event and serious adverse event monitoring. Systolic and diastolic blood pressure and pulse are measured after the subject has rested quietly in the sitting position for at least 3 minutes. Blood pressure is measured at the same arm on each occasion. Standard 12-lead ECGs are recorded at Screening, baseline, 4 hours post-dose on Day 1 and Day 8, and at Study Completion. The variables recorded are: date and time of ECG, heart rate. PR interval, QT interval (uncorrected), QTcB, QRS duration. The overall interpretation is collected with a Yes/No statement to confirm if any clinically relevant abnormalities are present, which needs to be specified further. Subjects remain on continuous telemetry, starting before breakfast on Day −1 and proceeding throughout the administration period up to Day 10 (24 hour after the last dose). Over this ten day duration of continuous heart rate collection for each subject, one heart rate value is obtained every minute (‘minute unit heart rate’), representing the average heart rate value over that minute. The heart rate database for each subject contains approximately 14,400 data points (10 days×24 hr×60 min). 24-hour continuous Holter-ECG data are captured via a digital Holter monitor (12-lead, on Days −1, 1, 6, and 8), and transferred for interpretation and reporting. Hotter monitoring starts approximately at 7:00 and the time of dose administration is regarded as the time “0 hours'. Holter “cuts” are derived from the dataset at 1 hour intervals starting from Day −1 and continuing for 24 hours or the end of the cleaned Hotter monitoring dataset. Cardiac conduction intervals: arrhythmia monitoring includes the frequency and duration of sinus pauses (>2 sec and >3 sec) and atrio-ventricular blocks. Frequency and duration of atrial and ventricular ectopy and sinus rhythm are also recorded. The daily chronotropic effect is defined as the percent decrease in HRmin (minimum heart rate) between two consecutive days. It is calculated on days 1 to 9.

multiple sclerosis = conditions: humans; Mehling et al. 2008, Kappos et al. 2006; cited from earlier work
healthy subjects [2] = conditions: administration of 1.25 mg; cited from earlier work
[3] = FTY720 1.25 mg once daily treatment group (active control), oral, healthy subjects

## CCCCCCCCc1ccc(CCC(N)(CO)CO)cc1.Cl [FTY720, 2-amino-2-[2-(4-octylphenyl)ethyl]propane-1,3-diol]
Healthy subjects [1]; [3]
  additional decrease in heart rate (daily average) from Day 1 to Day 2: approximately 3 BPM
  decrease in heart rate (daily average) from Day -1 to Day 1: approximately 8 BPM
Healthy subjects [1]; FTY720 titration group (0.125/0.25/0.5/1.25 mg o.d.), over the eight day course of the dose titration
  gradual decrease in heart rate per day: 1-2 BPM per day
Healthy subjects [1]; FTY720 titration group, initiation of 1.25 mg on Day 8
  dip in heart rate on initiation of 1.25 mg compared to the preceding days: does not result in dip in heart rate
Healthy subjects [1]; dose titration regimen compared with the FTY720 1.25 mg group
  daily minimum heart rates during the course of the study: improved daily minimum heart rates
Healthy subjects [1]; dose titration regimen versus 1.25 mg o.d. from Day 1
  negative chronotropic effect seen on Day 1 of treatment initiation: attenuates the negative chronotropic effect
Multiple sclerosis
  efficacy in the treatment of multiple sclerosis: has been demonstrated in humans
Healthy subjects [2]
  decrease in heart rate: approximately 8 beats/min (BPM)
